From patent US20240109917A1 (ACTELION PHARMACEUTICALS LTD, priority 2020, published 2024) come the findings set out here.

One assay has as its target VEGFR2, unphosphorylated (Homo sapiens (Human), UniProt P35968). Put plainly: VEGFR ADP GLO Assay. Format: biochemical. (In general: In ADP-Glo the light output rises with the ADP produced.)
The target in assay [1] is His6-TEV-PDGFRβ (557-1016) (Homo sapiens (Human), UniProt P09619). Put plainly: PDGFRβ HTRF Assay. Format: biochemical. To be noted: read-out: PDGFR HTRF IC50. In a few lines:
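HTRF KinEASE-TK readout (665/620 nm ratio) of TK-biotin substrate phosphorylation by His-tagged PDGFRβ kinase domain. Enzyme and inhibitor preincubated 30 min, then ATP/substrate added for 3 h at room temperature before 60 min EDTA quench/detection.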

A value given as a limit tells only on which side of the number the result lay.

A word on the IC50: it is the concentration that gives 50% inhibition.

Sequence of His6-TEV-PDGFRβ (557-1016) (P09619 557-1016): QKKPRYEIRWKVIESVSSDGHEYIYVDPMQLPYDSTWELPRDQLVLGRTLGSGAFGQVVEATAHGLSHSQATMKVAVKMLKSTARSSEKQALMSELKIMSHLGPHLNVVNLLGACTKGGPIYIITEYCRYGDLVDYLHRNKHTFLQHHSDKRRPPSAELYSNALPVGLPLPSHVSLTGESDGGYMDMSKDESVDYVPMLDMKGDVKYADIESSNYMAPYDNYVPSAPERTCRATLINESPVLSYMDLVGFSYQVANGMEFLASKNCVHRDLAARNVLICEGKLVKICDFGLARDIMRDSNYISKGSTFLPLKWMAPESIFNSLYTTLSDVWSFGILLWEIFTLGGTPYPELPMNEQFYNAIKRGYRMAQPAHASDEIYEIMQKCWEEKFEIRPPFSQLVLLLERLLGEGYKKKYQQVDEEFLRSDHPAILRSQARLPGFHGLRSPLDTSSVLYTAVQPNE
Sequence of VEGFR2, unphosphorylated (P35968 20-1356): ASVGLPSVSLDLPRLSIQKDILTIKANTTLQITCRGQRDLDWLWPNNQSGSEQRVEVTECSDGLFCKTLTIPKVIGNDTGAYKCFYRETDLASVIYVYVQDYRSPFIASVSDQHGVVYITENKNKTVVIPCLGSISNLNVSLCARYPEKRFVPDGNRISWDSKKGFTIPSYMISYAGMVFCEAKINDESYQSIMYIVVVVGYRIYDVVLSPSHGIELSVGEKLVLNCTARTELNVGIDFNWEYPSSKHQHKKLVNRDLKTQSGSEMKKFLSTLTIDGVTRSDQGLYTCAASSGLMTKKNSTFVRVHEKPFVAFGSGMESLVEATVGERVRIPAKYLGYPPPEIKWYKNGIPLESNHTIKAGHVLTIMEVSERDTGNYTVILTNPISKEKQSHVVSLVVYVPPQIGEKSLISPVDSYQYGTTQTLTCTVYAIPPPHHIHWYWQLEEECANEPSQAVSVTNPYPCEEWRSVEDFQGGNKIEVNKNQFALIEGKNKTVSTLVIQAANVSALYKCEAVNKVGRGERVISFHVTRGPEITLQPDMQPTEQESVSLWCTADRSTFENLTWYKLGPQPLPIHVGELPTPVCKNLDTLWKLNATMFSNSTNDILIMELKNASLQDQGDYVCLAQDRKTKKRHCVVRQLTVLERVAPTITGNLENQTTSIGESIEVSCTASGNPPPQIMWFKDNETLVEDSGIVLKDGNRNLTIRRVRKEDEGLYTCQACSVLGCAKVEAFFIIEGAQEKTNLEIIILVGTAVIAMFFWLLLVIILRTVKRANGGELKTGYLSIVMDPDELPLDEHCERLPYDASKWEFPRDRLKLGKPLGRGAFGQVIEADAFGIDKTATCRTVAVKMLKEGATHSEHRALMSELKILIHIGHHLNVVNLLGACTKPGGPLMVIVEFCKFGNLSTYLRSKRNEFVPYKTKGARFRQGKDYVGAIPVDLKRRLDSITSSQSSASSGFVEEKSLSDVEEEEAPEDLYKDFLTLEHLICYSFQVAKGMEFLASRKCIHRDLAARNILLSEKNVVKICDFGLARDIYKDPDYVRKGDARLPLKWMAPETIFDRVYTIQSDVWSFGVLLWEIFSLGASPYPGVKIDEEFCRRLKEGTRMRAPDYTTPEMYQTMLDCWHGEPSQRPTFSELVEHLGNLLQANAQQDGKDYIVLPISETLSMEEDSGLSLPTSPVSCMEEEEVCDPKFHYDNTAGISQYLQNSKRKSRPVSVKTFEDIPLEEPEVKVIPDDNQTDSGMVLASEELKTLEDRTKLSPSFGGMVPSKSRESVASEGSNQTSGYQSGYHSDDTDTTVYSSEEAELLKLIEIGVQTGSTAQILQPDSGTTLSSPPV

Turning to `COc1ncccc1-c1cn2ncc(C(=O)Nc3cc(NC(=O)CN4C[C@H](C)O[C@@H](C)C4)cnc3C)c2s1` (relative stereo) [Example 384, N-(5-(2-(trans-2,6-dimethylmorpholino)acetamido)-2-methylpyridin-3-yl)-2-(2-methoxypyridin-3-yl)pyrazolo[5,1-b]thiazole-7-carboxamide], the IC50 against VEGFR2, unphosphorylated was > 833 nM; in assay [1], 0.4 nM.
The matching figures for `Cc1ncc(NC(=O)C[C@H]2CCCN2C(C)C)cc1NC(=O)c1cnn2cc(-c3cnn4c3OCCC4)sc12` [Example 351, (R)-2-(6,7-dihydro-5H-pyrazolo[5,1-b][1,3]oxazin-3-yl)-N-(5-(2-(1-isopropylpyrrolidin-2-yl)acetamido)-2-methylpyridin-3-yl)pyrazolo[5,1-b]thiazole-7-carboxamide]: > 7500 nM and 0.3 nM.
For the molecule `Cc1ncc(NC(=O)CN2CCCC23CCC3)cc1NC(=O)c1cnn2cc(-c3cnn(CCO)c3)sc12` [Example 29, N-(5-(2-(5-azaspiro[3.4]octan-5-yl)acetamido)-2-methylpyridin-3-yl)-2-(1-(2-hydroxyethyl)-1H-pyrazol-4-yl)pyrazolo[5,1-b]thiazole-7-carboxamide], the IC50 on VEGFR2, unphosphorylated is > 7500 nM; in assay [1], 0.4 nM.
`Cc1ncc(S(=O)(=O)NCCN2CCCC2(C)C)cc1NC(=O)c1cnn2cc(-c3cnn(C)c3)sc12` [Example 359, N-(5-(N-(2-(2,2-dimethylpyrrolidin-1-yl)ethyl)sulfamoyl)-2-methylpyridin-3-yl)-2-(1-methyl-1H-pyrazol-4-yl)pyrazolo[5,1-b]thiazole-7-carboxamide]: the 50% inhibitory concentration (IC50) on VEGFR2, unphosphorylated is > 7500 nM; in assay [1], 16.4 nM.
The like results for `COc1ncccc1-c1cn2ncc(C(=O)Nc3cc(NC(=O)CN4CC(F)C4)cnc3C)c2s1` [Example 402, N-(5-(2-(3-fluoroazetidin-1-yl)acetamido)-2-methylpyridin-3-yl)-2-(2-methoxypyridin-3-yl)pyrazolo[5,1-b]thiazole-7-carboxamide] were, in that order, > 7500 nM and 0.3 nM.
The like results for `COc1cccc(-c2cn3ncc(C(=O)Nc4cc(NC(=O)CN5CC(C)(C)C5)cnc4C)c3s2)n1` [Example 394, N-(5-(2-(3,3-dimethylazetidin-1-yl)acetamido)-2-methylpyridin-3-yl)-2-(6-methoxypyridin-2-yl)pyrazolo[5,1-b]thiazole-7-carboxamide] were, in that order, > 7500 nM and 0.2 nM.
The matching figures for `Cc1ncc(NC(=O)CN2C[C@H](C)O[C@@H](C)C2)cc1NC(=O)c1cnn2cc(-c3cnn4c3OCCC4)sc12` (relative stereo) [Example 375, 2-(6,7-dihydro-5H-pyrazolo[5,1-b][1,3]oxazin-3-yl)-N-(5-(2-(trans-2,6-dimethylmorpholino)acetamido)-2-methylpyridin-3-yl)pyrazolo[5,1-b]thiazole-7-carboxamide]: > 833 nM and 0.6 nM.
As to `COCCn1cc(-c2cn3ncc(C(=O)Nc4cc(NC(=O)CN5CCCC6(CC6)C5)cnc4C)c3s2)cn1` [Example 335, N-(5-(2-(5-azaspiro[2.5]octan-5-yl)acetamido)-2-methylpyridin-3-yl)-2-(1-(2-methoxyethyl)-1H-pyrazol-4-yl)pyrazolo[5,1-b]thiazole-7-carboxamide], the 50% inhibitory concentration (IC50) on VEGFR2, unphosphorylated was > 7500 nM; in assay [1], 0.4 nM.
The matching figures for `COC/C=C/c1cn2ncc(C(=O)Nc3cc(NC(=O)CN4C[C@H](C)O[C@@H](C)C4)cnc3C)c2s1` (relative stereo) [Example 367, N-(5-(2-(trans-2,6-dimethylmorpholino)acetamido)-2-methylpyridin-3-yl)-2-((E)-3-methoxyprop-1-en-1-yl)pyrazolo[5,1-b]thiazole-7-carboxamide]: > 7500 nM and 1.8 nM.
`Cc1ncc(NC(=O)CN2C[C@H](C)O[C@@H](C)C2)cc1NC(=O)c1cnn2cc(-c3cc[nH]n3)sc12` (relative stereo) [Example 374, N-(5-(2-(trans-2,6-dimethylmorpholino)acetamido)-2-methylpyridin-3-yl)-2-(1H-pyrazol-3-yl)pyrazolo[5,1-b]thiazole-7-carboxamide]: the IC50 was > 7500 nM against VEGFR2, unphosphorylated and 0.4 nM in assay [1].
As for `Cc1ncc(NS(=O)(=O)CCN2CC3CCC2CC3)cc1NC(=O)c1cnn2cc(-c3cnn(C)c3)sc12` [Example 358, N-(5-((2-(2-azabicyclo[2.2.2]octan-2-yl)ethyl)sulfonamido)-2-methylpyridin-3-yl)-2-(1-methyl-1H-pyrazol-4-yl)pyrazolo[5,1-b]thiazole-7-carboxamide], the IC50 on VEGFR2, unphosphorylated was > 7500 nM; in assay [1] it was 86.6 nM.
The like results for `Cc1ncc(NC(=O)CN2C[C@H](CO)OC(C)(C)C2)cc1NC(=O)c1cnn2cc(-c3cnn(C)c3)sc12` [Example 376, (R)—N-(5-(2-(6-(hydroxymethyl)-2,2-dimethylmorpholino)acetamido)-2-methylpyridin-3-yl)-2-(1-methyl-1H-pyrazol-4-yl)pyrazolo[5,1-b]thiazole-7-carboxamide] were, in that order, > 7500 nM and 0.8 nM.
Consider `Cc1ncc(NC(=O)CN2CCCC[C@H]2C)cc1NC(=O)c1cnn2cc(-c3cnn(CCO)c3)sc12` [Example 33, (R)-2-(1-(2-hydroxyethyl)-1H-pyrazol-4-yl)-N-(2-methyl-5-(2-(2-methyl-piperidin-1-yl)acetamido)pyridin-3-yl)pyrazolo[5,1-b]thiazole-7-carboxamide], for which the IC50 was > 7500 nM at VEGFR2, unphosphorylated and 0.7 nM in assay [1].
In the case of `COCCn1cc(-c2cn3ncc(C(=O)Nc4cc(NC(=O)CN5CC6CCC5CC6)cnc4C)c3s2)cn1` [Example 331, N-(5-(2-(2-azabicyclo[2.2.2]octan-2-yl)acetamido)-2-methylpyridin-3-yl)-2-(1-(2-methoxyethyl)-1H-pyrazol-4-yl)pyrazolo[5,1-b]thiazole-7-carboxamide], the concentration for half-maximal inhibition (IC50) at VEGFR2, unphosphorylated is > 7500 nM; in assay [1], 0.4 nM.
The matching figures for `COCCn1cc(-c2cn3ncc(C(=O)Nc4cc(NC(=O)CN5CCC(C)(C)C5)cnc4C)c3s2)cn1` [Example 336, N-(5-(2-(3,3-dimethylpyrrolidin-1-yl)acetamido)-2-methylpyridin-3-yl)-2-(1-(2-methoxyethyl)-1H-pyrazol-4-yl)pyrazolo[5,1-b]thiazole-7-carboxamide]: > 7500 nM and 0.4 nM.
The matching figures for `Cc1ncc(NC(=O)CN2CCC[C@H]2C)cc1NC(=O)c1cnn2cc(-c3cnn(C)c3)sc12` [Example 26, (R)-2-(1-methyl-1H-pyrazol-4-yl)-N-(2-methyl-5-(2-(2-methyl-pyrrolidin-1-yl)acetamido)pyridin-3-yl)pyrazolo[5,1-b]thiazole-7-carboxamide]: > 7500 nM and 0.8 nM.
For the molecule `Cc1cnn(C)c1-c1cn2ncc(C(=O)Nc3cc(NC(=O)CN4CC(C)(C)C4)cnc3C)c2s1` [Example 389, 2-(1,4-dimethyl-1H-pyrazol-5-yl)-N-(5-(2-(3,3-dimethylazetidin-1-yl)acetamido)-2-methylpyridin-3-yl)pyrazolo[5,1-b]thiazole-7-carboxamide], the IC50 on VEGFR2, unphosphorylated is > 7500 nM; in assay [1] it was 0.6 nM.
The like results for `Cc1ncc(NC(=O)C2CN(C(C)C)C2)cc1NC(=O)c1cnn2cc(-c3cnn4c3OCCC4)sc12` [Example 348, 2-(6,7-dihydro-5H-pyrazolo[5,1-b][1,3]oxazin-3-yl)-N-(5-(1-isopropylazetidine-3-carboxamido)-2-methylpyridin-3-yl)pyrazolo[5,1-b]thiazole-7-carboxamide] were, in that order, > 7500 nM and 0.4 nM.
As to `Cc1ncc(NC(=O)CN2CCC3(CCC3)C2)cc1NC(=O)c1cnn2cc(-c3cnn(CCO)c3)sc12` [Example 30, N-(5-(2-(6-azaspiro[3.4]octan-6-yl)acetamido)-2-methylpyridin-3-yl)-2-(1-(2-hydroxyethyl)-1H-pyrazol-4-yl)pyrazolo[5,1-b]thiazole-7-carboxamide], the IC50 against VEGFR2, unphosphorylated is > 7500 nM; in assay [1], 0.5 nM.
The matching figures for `COc1ccc(-c2cn3ncc(C(=O)Nc4cc(NC(=O)CN5CC(C)(C)C5)cnc4C)c3s2)cn1` [Example 395, N-(5-(2-(3,3-dimethylazetidin-1-yl)acetamido)-2-methylpyridin-3-yl)-2-(6-methoxypyridin-3-yl)pyrazolo[5,1-b]thiazole-7-carboxamide]: > 7500 nM and 0.4 nM.
The like results for `Cc1ncc(C(=O)NCCN2CCCC2(C)C)cc1NC(=O)c1cnn2cc(-c3cnn(Cc4cc(OCc5ccccc5)no4)c3)sc12` [Example 362, 2-(1-((3-(benzyloxy)isoxazol-5-yl)methyl)-1H-pyrazol-4-yl)-N-(5-((2-(2,2-dimethylpyrrolidin-1-yl)ethyl)carbamoyl)-2-methylpyridin-3-yl)pyrazolo[5,1-b]thiazole-7-carboxamide] were, in that order, > 2500 nM and 0.5 nM.
For the molecule `CCn1nccc1-c1cn2ncc(C(=O)Nc3cc(NC(=O)CN4CC(C)(C)C4)cnc3C)c2s1` [Example 388, N-(5-(2-(3,3-dimethylazetidin-1-yl)acetamido)-2-methylpyridin-3-yl)-2-(1-ethyl-1H-pyrazol-5-yl)pyrazolo[5,1-b]thiazole-7-carboxamide], the IC50 against VEGFR2, unphosphorylated is > 7500 nM; in assay [1], 0.5 nM.
Turning to `COCCn1cc(-c2cn3ncc(C(=O)Nc4cc(NC(=O)CN5CCCCCC5)cnc4C)c3s2)cn1` [Example 339, N-(5-(2-(azepan-1-yl)acetamido)-2-methylpyridin-3-yl)-2-(1-(2-methoxyethyl)-1H-pyrazol-4-yl)pyrazolo[5,1-b]thiazole-7-carboxamide], the IC50 was > 7500 nM on VEGFR2, unphosphorylated and 0.4 nM in assay [1].
